Experimental data as given in patent US9446039B2, “Aminoheteroaryl compounds as MTH1 inhibitors” (CEMM—FORSCHUNGSZENTRUM FÜR MOLEKULARE MEDIZIN GMBH, priority 2012, dated 2016).

Key:
Format in all cases: binding
[1] = molecular target: T1, SW480 colon carcinoma cells lysate proteins (Homo sapiens, UniProt O00154); conditions: PreyGene ACOT7
T1 sequence (O00154 1-380): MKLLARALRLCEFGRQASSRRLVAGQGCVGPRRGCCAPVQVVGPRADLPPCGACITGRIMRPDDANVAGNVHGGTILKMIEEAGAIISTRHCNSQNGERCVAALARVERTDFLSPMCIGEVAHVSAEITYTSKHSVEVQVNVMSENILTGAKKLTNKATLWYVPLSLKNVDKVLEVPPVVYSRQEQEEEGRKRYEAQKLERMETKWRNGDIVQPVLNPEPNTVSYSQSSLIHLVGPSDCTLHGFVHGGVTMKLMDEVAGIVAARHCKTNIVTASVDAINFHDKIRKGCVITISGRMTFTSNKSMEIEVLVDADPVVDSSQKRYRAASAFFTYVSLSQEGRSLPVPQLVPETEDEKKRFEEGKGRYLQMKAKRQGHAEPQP

[2] = molecular target: T2, SW480 colon carcinoma cells lysate proteins (Homo sapiens, UniProt P02533); conditions: PreyGene KRT14
T2 sequence (P02533 1-472): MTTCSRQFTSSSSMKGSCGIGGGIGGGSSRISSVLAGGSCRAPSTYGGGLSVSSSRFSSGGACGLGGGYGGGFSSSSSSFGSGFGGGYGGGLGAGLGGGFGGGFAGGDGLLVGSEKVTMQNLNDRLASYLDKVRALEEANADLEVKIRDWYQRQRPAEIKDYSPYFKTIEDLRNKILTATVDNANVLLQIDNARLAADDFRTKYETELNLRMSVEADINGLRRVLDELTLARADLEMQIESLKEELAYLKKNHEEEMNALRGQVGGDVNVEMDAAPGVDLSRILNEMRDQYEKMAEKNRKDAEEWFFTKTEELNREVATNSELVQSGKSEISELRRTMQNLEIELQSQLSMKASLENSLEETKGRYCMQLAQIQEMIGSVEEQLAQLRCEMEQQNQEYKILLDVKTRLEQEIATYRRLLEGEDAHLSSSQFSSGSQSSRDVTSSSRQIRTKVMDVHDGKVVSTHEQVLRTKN

[3] = molecular target: SW480 colon carcinoma cells lysate proteins (Homo sapiens, UniProt P07355); conditions: PreyGene ANXA2
[4] = molecular target: T3, SW480 colon carcinoma cells lysate proteins (Homo sapiens, UniProt P10599); conditions: PreyGene TXN
T3 sequence (P10599 1-105): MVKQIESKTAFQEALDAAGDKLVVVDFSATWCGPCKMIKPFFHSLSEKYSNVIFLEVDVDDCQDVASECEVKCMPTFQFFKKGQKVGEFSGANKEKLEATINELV

[5] = molecular target: SW480 colon carcinoma cells lysate proteins (Homo sapiens, UniProt P23284); conditions: PreyGene PPIB
[6] = molecular target: SW480 colon carcinoma cells lysate proteins (Homo sapiens, UniProt P26038); conditions: PreyGene MSN
[7] = molecular target: SW480 colon carcinoma cells lysate proteins (Homo sapiens, UniProt P62861); conditions: PreyGene FAU
[8] = molecular target: SW480 colon carcinoma cells lysate proteins (Homo sapiens, UniProt Q13283); conditions: PreyGene G3BP1; SW480 cells
[9] = molecular target: T4, SW480 colon carcinoma cells lysate proteins (Homo sapiens, UniProt Q14498); conditions: PreyGene RBM39
T4 sequence (Q14498 1-530): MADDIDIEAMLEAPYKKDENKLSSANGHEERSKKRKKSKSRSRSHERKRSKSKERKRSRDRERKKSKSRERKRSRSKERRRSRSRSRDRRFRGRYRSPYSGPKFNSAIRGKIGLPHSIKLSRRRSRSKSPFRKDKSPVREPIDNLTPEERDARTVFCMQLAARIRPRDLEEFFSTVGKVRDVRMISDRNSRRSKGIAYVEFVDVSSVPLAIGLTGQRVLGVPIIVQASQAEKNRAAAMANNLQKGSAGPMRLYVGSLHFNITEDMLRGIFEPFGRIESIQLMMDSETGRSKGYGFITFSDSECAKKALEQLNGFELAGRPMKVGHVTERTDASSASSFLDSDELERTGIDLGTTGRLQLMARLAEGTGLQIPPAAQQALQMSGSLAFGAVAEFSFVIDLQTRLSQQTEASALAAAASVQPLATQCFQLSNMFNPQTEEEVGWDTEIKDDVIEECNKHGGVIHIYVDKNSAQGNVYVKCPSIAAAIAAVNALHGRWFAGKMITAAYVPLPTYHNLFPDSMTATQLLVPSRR

[10] = molecular target: SW480 colon carcinoma cells lysate proteins (Homo sapiens, UniProt Q92688); conditions: PreyGene ANP32B
Chain of SW480 colon carcinoma cells lysate proteins (Homo sapiens, UniProt Q92688) (Q92688 whole entry): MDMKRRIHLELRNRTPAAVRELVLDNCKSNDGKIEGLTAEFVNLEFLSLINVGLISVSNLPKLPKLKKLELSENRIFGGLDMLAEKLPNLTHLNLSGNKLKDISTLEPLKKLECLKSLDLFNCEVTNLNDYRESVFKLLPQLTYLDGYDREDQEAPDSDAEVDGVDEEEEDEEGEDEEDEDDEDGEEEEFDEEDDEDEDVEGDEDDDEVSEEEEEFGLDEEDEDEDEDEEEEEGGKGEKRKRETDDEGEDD

Chain of SW480 colon carcinoma cells lysate proteins (Homo sapiens, UniProt P23284) (P23284 34-216): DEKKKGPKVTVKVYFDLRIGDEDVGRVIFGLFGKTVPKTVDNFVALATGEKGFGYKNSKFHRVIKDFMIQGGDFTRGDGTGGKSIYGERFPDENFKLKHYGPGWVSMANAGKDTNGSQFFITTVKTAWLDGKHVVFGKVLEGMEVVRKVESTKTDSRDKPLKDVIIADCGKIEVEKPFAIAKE
Chain of SW480 colon carcinoma cells lysate proteins (Homo sapiens, UniProt P07355) (P07355 whole entry): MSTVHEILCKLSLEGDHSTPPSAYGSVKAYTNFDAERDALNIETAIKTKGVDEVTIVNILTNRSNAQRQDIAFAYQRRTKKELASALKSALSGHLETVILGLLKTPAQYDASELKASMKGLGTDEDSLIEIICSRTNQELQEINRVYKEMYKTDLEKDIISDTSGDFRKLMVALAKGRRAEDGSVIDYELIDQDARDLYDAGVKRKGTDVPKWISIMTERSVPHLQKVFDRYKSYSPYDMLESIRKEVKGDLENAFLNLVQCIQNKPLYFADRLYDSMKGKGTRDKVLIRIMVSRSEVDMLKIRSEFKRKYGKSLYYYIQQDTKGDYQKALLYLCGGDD
Chain of SW480 colon carcinoma cells lysate proteins (Homo sapiens, UniProt P26038) (P26038 whole entry): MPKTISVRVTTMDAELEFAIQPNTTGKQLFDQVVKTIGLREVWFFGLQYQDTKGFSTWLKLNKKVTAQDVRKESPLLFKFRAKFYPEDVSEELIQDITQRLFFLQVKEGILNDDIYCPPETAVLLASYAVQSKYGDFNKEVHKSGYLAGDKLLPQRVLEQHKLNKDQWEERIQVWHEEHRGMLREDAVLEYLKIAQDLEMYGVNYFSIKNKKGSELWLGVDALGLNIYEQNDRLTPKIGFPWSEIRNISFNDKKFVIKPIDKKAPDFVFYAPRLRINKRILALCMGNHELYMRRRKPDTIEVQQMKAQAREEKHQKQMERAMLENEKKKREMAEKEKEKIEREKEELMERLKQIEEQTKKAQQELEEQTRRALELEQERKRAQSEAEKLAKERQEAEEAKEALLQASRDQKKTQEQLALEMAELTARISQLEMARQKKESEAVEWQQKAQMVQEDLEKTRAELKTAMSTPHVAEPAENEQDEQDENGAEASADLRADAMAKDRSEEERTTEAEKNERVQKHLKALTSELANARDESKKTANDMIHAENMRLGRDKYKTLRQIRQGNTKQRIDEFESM
Chain of SW480 colon carcinoma cells lysate proteins (Homo sapiens, UniProt Q13283) (Q13283 whole entry): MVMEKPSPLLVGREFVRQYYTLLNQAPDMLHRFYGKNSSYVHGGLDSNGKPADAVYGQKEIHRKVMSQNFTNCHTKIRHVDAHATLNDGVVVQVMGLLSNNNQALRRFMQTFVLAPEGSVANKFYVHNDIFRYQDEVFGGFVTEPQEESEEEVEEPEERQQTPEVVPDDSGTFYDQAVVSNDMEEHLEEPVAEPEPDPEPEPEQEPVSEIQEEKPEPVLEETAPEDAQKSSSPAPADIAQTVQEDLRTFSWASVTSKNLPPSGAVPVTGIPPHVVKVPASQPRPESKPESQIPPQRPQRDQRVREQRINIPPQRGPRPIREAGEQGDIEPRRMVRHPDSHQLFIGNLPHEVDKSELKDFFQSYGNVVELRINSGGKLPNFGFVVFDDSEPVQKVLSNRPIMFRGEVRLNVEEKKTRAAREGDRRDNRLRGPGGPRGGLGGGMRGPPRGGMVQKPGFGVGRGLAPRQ

In the case of `C[C@H](Oc1cc(-c2cnn(C3CCNCC3)c2)cnc1N)c1c(Cl)ccc(F)c1Cl` [(5)-crizotinib], the AvgP [1] was 0.2785, the “SC.Exp. 1-1” value [1] was 1 and the “SC.Exp. 1-2” value [1] was 2. The “SC.Exp. 2-1” value [1] was 0, the “SC.Exp. 2-2” value [1] was 0 and the “Sum (SC.Exp.)” value [1] was 3. For the same compound, the AvgP [2] was 0.4038, the “SC.Exp. 1-1” value [2] was 4 and the “SC.Exp. 1-2” value [2] was 2. For the same compound, the “SC.Exp. 2-1” value [2] was 0, the “SC.Exp. 2-2” value [2] was 0 and the “Sum (SC.Exp.)” value [2] was 6. The AvgP [3] was 0.41, the “SC.Exp. 1-1” value [3] was 13 and the “SC.Exp. 1-2” value [3] was 13. The “SC.Exp. 2-1” value [3] was 0, the “SC.Exp. 2-2” value [3] was 0 and the “Sum (SC.Exp.)” value [3] was 26. The AvgP [4] was 0.4587, the “SC.Exp. 1-1” value [4] was 4 and the “SC.Exp. 1-2” value [4] was 5. For the same compound, the “SC.Exp. 2-1” value [4] was 2, the “SC.Exp. 2-2” value [4] was 1 and the “Sum (SC.Exp.)” value [4] was 12. For the same compound, the AvgP [5] was 0.381, the “SC.Exp. 1-1” value [5] was 2 and the “SC.Exp. 1-2” value [5] was 2. The “SC.Exp. 2-1” value [5] was 0, the “SC.Exp. 2-2” value [5] was 0 and the “Sum (SC.Exp.)” value [5] was 4. For the same compound, the AvgP [6] was 0.2291, the “SC.Exp. 1-1” value [6] was 11 and the “SC.Exp. 1-2” value [6] was 11. The “SC.Exp. 2-1” value [6] was 0, the “SC.Exp. 2-2” value [6] was 0 and the “Sum (SC.Exp.)” value [6] was 22. For the same compound, the AvgP [7] was 0.2109, the “SC.Exp. 1-1” value [7] was 2 and the “SC.Exp. 1-2” value [7] was 4. The “SC.Exp. 2-1” value [7] was 0, the “SC.Exp. 2-2” value [7] was 2 and the “Sum (SC.Exp.)” value [7] was 8. For the same compound, the AvgP [8] was 0, the “SC.Exp. 1-1” value [8] was 2 and the “SC.Exp. 1-2” value [8] was 2. For the same compound, the “SC.Exp. 2-1” value [8] was 3, the “SC.Exp. 2-2” value [8] was 2 and the “SC.Exp. Sum” value [8] was 9. The AvgP [9] was 0.4214, the “SC.Exp. 1-1” value [9] was 4 and the “SC.Exp. 1-2” value [9] was 3. For the same compound, the “SC.Exp. 2-1” value [9] was 0, the “SC.Exp. 2-2” value [9] was 0 and the “Sum (SC.Exp.)” value [9] was 7. For the same compound, the AvgP [10] was 0.5116, the “SC.Exp. 1-1” value [10] was 0 and the “SC.Exp. 1-2” value [10] was 1. For the same compound, the “SC.Exp. 2-1” value [10] was 4, the “SC.Exp. 2-2” value [10] was 4 and the “Sum (SC.Exp.)” value [10] was 9.
